Results taken from PMC12207590, “Substrate Specificity of the Organic Cation Transporters MATE1 and MATE2K and Functional Overlap with OCT1 and OCT2” (Journal of Medicinal Chemistry, 2025).
Like-named read-outs stand apart in the source and are kept apart here. One block for each compound: values may come before it.

What was measured:
MATE1 = target: T1, MATE1 (Homo sapiens, UniProt Q96FL8); assay: Uptake ratio in MATE1-overexpressing HEK293 cells vs empty vector (2.5 μM, 1 min, HPLC-MS/MS); type: cell-based; conditions: for MATE1 ratio in this study: Table S1
T1 sequence (Q96FL8 1-570): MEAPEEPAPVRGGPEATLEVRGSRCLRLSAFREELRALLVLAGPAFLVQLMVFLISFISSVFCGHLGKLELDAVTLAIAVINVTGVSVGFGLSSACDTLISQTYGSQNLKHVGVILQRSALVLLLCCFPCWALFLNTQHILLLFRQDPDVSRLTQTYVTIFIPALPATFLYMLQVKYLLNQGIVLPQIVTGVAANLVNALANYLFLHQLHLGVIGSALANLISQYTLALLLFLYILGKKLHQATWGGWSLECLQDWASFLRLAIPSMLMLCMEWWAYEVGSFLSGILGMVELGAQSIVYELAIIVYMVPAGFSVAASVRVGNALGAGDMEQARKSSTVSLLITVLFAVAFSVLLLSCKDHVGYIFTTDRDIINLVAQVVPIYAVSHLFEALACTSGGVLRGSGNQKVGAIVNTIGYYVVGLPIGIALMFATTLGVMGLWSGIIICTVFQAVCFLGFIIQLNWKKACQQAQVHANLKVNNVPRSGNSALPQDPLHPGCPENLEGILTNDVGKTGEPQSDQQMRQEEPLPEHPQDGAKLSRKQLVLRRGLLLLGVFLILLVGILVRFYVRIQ

MATE2K = MATE2K (Homo sapiens, UniProt Q86VL8); assay: Uptake ratio in MATE2K-overexpressing HEK293 cells vs empty vector (2.5 μM, 1 min, HPLC-MS/MS); type: cell-based; conditions: for MATE2K ratio in this study: Table S1
Sequence of MATE2K (Q86VL8 1-566 isoform Q86VL8-3): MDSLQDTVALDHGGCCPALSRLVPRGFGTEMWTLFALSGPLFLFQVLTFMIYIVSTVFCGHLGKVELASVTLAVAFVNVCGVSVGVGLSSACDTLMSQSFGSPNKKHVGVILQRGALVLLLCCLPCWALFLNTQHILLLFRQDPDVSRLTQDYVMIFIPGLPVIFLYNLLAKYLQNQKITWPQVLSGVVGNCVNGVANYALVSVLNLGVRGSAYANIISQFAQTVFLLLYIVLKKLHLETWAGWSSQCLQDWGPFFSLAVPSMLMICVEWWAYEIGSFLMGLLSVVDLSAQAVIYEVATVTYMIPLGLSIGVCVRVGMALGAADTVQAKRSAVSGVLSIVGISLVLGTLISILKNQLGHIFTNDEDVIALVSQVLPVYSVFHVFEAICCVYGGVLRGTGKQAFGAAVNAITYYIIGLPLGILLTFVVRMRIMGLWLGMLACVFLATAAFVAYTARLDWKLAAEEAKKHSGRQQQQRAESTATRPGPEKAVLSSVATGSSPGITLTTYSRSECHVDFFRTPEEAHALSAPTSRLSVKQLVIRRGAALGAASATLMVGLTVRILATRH

[1] = fold uptake over empty vector, 2.5 μM, 1 min
[2] = uptake ratio MATE1-overexpressing vs empty-vector HEK293 cells, 2.5 μM, 1 min, mean
[3] = uptake ratio MATE2K-overexpressing vs empty-vector HEK293 cells, 2.5 μM, 1 min, mean
[4] = mean ratio of uptake in MATE1-overexpressing HEK293 cells vs empty vector, 2.5 μM, 1 min
[5] = mean ratio of uptake in MATE2K-overexpressing HEK293 cells vs empty vector, 2.5 μM, 1 min

SMILES: N=C(Nc1ccccc1)Nc1ccccc1 [1,3-Diphenylguanidine]
- MATE1 (uptake ratio) (MATE1): 1.53
- MATE1 ratio (MATE1): 1.53
- MATE2 (uptake ratio) (MATE2K): 1.27
- MATE2K ratio (MATE2K): 1.27

SMILES: Oc1ncnc2[nH]ncc12 [Allopurinol]
- MATE1 ratio (MATE1; [1]): 1.08
- MATE1 (uptake ratio) (MATE1; [4]): 1.08
- MATE2K ratio (MATE2K; [1]): 0.85
- MATE2 (uptake ratio) (MATE2K; [5]): 0.85

SMILES: CCC1(C2=NCCN2)Cc2ccccc2O1 (stereo not drawn) [Efaroxan]
- MATE1 ratio (MATE1; [1]): 1.38
- MATE2K ratio (MATE2K; [1]): 1.72

SMILES: O=c1cccc2n1C[C@@H]1CNC[C@H]2C1 [Cytisine]
- MATE1 ratio (MATE1): 1.95
- MATE2K ratio (MATE2K): 1.17

SMILES: NCCCC[C@H](N)C(=O)O [Lysine]
- MATE1 ratio (MATE1): 1.13
- MATE2K ratio (MATE2K): 1.05

SMILES: CC(C)C(=O)O[C@H](CC(=O)[O-])C[N+](C)(C)C [Isobutyrylcarnitine]
- MATE1 ratio (MATE1; [1]): 1.40
- MATE2K ratio (MATE2K; [1]): 1.35

SMILES: O=C1CCC(N2C(=O)c3ccccc3C2=O)C(=O)N1 (stereo not drawn) [Thalidomide]
- MATE1 (MATE1; [2]): 0.85
- MATE2 (MATE2K; [3]): 2.02

SMILES: CC[N+](CC)(CC)Cc1ccccc1 [Benzyltriethylammonium]
- MATE1 ratio (MATE1; [1]): 25.63
- MATE1 (uptake ratio) (MATE1; [4]): 25.63
- MATE2K ratio (MATE2K; [1]): 4.52
- MATE2 (uptake ratio) (MATE2K; [5]): 4.52

SMILES: CN(C)C(N)=NCCC[C@H](N)C(=O)O [NN-Dimethylarginine]
- MATE1 ratio (MATE1; [1]): 0.97
- MATE2K ratio (MATE2K; [1]): 0.93

SMILES: CC(=O)N[C@@H](CS)C(=O)O [N-Acetyl-L-cysteine]
- MATE1 ratio (MATE1; [1]): 1.02
- MATE2K ratio (MATE2K; [1]): 0.95

SMILES: CNCCc1ccc(O)cc1 [N-Methyl-p-Tyramine]
- MATE1 ratio (MATE1): 3.11
- MATE2K ratio (MATE2K): 1.39

SMILES: CNCCCC12CCC(c3ccccc31)c1ccccc12 [Maprotiline]
- MATE1 ratio (MATE1; [1]): 1.17
- MATE2K ratio (MATE2K; [1]): 1.04

SMILES: C1CCN2C[C@@H]3C[C@@H](CN4CCCC[C@@H]34)[C@H]2C1 [Sparteine (+), Sparteine]
- MATE1 (MATE1): 1.62
- MATE1 ratio (MATE1): 1.62
- MATE2 (MATE2K): 1.31
- MATE2K ratio (MATE2K): 1.31

SMILES: CC(C)(C)NCC(O)c1ccc(O)c(CO)c1 [Salbutamol (R), Salbutamol]
- MATE1 ratio in this study (MATE1; 2.5 μM, 1 min): 6.98
- MATE1 ratio (MATE1; [1]): 6.98
- MATE1 (MATE1; [2]): 6.98
- MATE2K ratio in this study (MATE2K; 2.5 μM, 1 min): 3.74
- MATE2K ratio (MATE2K; [1]): 3.74
- MATE2 (MATE2K; [3]): 3.74

SMILES: Nc1ccc(S(=O)(=O)c2ccc(N)cc2)cc1 [Dapsone]
- MATE1 ratio (MATE1; [1]): 0.89
- MATE2K ratio (MATE2K; [1]): 0.95

Continued, values first:

- MATE1 ratio in this study (MATE1; 2.5 μM, 1 min): 33.89
- MATE1 ratio (MATE1; [1]): 33.89
- MATE2K ratio in this study (MATE2K; 2.5 μM, 1 min): 5.40
- MATE2K ratio (MATE2K; [1]): 5.40
SMILES: CNC(=O)c1cccnc1 [Methylnicotinamide, N-Methylnicotinamide]

- MATE1 ratio (MATE1; [1]): 37.78
- MATE2K ratio (MATE2K; [1]): 3.98
SMILES: CNC[C@H](O)c1ccc(O)c(O)c1 [Epinephrine (-), Epinephrine]

- MATE1 ratio (MATE1; [1]): 1.13
- MATE1 (MATE1; [2]): 1.13
- MATE2K ratio (MATE2K; [1]): 1.25
- MATE2 (MATE2K; [3]): 1.25
SMILES: NCCCNCCCCNCCCN [Spermine]

- MATE1 ratio (MATE1; [1]): 9.89
- MATE2K ratio (MATE2K; [1]): 2.04
SMILES: CC[N+](C)(CC)CCOC(=O)C(O)(c1ccccc1)C1CCCCC1 (stereo not drawn) [Oxyphenonium]

- MATE1 ratio (MATE1; [1]): 1.05
- MATE2K ratio (MATE2K; [1]): 1.20
SMILES: C=CCOc1ccccc1OCC(O)CNC(C)C (stereo not drawn) [Oxprenolol]

- MATE1 ratio (MATE1; [1]): 1.26
- MATE2K ratio (MATE2K; [1]): 1.08
SMILES: CN(C)CCC=C1c2ccccc2COc2ccccc21 [Doxepin (E), Doxepin]

- MATE1 ratio (MATE1): 1.01
- MATE2K ratio (MATE2K): 1.07
SMILES: CN(CC(=O)O)C(=N)N [Creatine]

- MATE1 ratio (MATE1; [1]): 1.20
- MATE2K ratio (MATE2K; [1]): 1.05
SMILES: CNC1(C)C2CCC(C2)C1(C)C (stereo not drawn) [Mecamylamine]

- MATE1 ratio (MATE1; [1]): 1.17
- MATE1 (uptake ratio) (MATE1; [4]): 1.17
- MATE2K ratio (MATE2K; [1]): 1.31
- MATE2 (uptake ratio) (MATE2K; [5]): 1.31
SMILES: CC(C)(C)NCC(O)COc1ccccc1C#N (stereo not drawn) [Bunitrolol]

- MATE1 ratio (MATE1; [1]): 0.92
- MATE2K ratio (MATE2K; [1]): 1.03
SMILES: C1CNCCN1 [Piperazine]

- MATE1 ratio (MATE1; [1]): 1.11
- MATE1 (uptake ratio) (MATE1; [4]): 1.11
- MATE2K ratio (MATE2K; [1]): 1.17
- MATE2 (uptake ratio) (MATE2K; [5]): 1.17
SMILES: Clc1cccc(Cl)c1N=C1NCCN1 [Clonidine]
